Reference: patent publication US20240376097A1, “BCL-2 Inhibitor” (BeiGene Ltd., priority 2020, published 2024)

Experiments:
[1] = system: recombinant human Bcl-2-G101V protein; experiment: Bcl-2-G101V TR-FRET Assay; assay type: binding; conditions: ratio of biochemical IC50 Bcl-2 G101V / Bcl-2 WT
In short: (§1)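 TR-FRET read at excitation 337 nm with emission at 490 nm and 520 nm. Inhibition of Bcl-2-G101V binding to its ligand across increasing compound concentrations was calculated from the 490/520 nm fluorescence ratio, and IC50 values came from four-parameter logistic fits.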

[2] = biological target: recombinant human Bcl-2-G101V protein (Homo sapiens (Human), UniProt P10415, G101V); experiment: Bcl-2-G101V TR-FRET Assay; assay type: binding; conditions: Bcl-2 G101V mutant, TR-FRET; read-out: Biochemical assay (IC50, nM) Bcl-2 G101V
In short: as §1

[3] = system: RS4;11 (BCL-2 dependent acute lymphoblastic leukemia cell line); experiment: RS4;11 Cell Proliferation Assay; assay type: cell-based; conditions: Homo sapiens, RS4-11, RS4;11 cells, read-out: Cellular proliferation assay (IC50, nM) RS4
In short: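 Viability measured via CellTiter-Glo luminescence after a 48 h, 37 °C exposure to compounds (10 points, highest 1 μM). Seeding was 50,000 RS4;11 cells per well in 10% FBS RPMI-1640; IC50 given as mean.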

[4] = system: BCL-2 G101V knock-in cell line H96 (derive from RS4;11); experiment: Bcl 2-G101V Knock-In RS4;11 Cell Proliferation Assay; assay type: cell-based; conditions: Homo sapiens, RS4;11 Bcl-2 G101V knock-in clone H96, 48 hrs, CellTiter-GLO, read-out: Cellular proliferation assay (IC50, nM) RS4
In short: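 CellTiter-Glo luminescence after 48 h, 37 °C compound treatment (10 concentrations, maximum 1 μM or 10 μM) gave mean IC50 values. Cells were 50,000 per well of H96, a BCL2-G101V knock-in single clone derived from RS4;11 by Cas9 editing.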

[5] = biological target: Recombinant human Bcl-2 protein (Homo sapiens (Human), UniProt P10415); experiment: Bcl-2 TR-FRET Assay; assay type: binding; conditions: Bcl-2 wild type, TR-FRET; read-out: Biochemical assay (IC50, nM) Bcl-2 WT
In short: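 TR-FRET read (337 nm excitation, 520/490 nm emission) after 1 h with 0.5 nM FITC-labeled Bak peptide and Tb-cryptate anti-6His antibody. Bcl-2 at 0.05 nM had been pre-incubated 0.5 h with compound. IC50 fitted by four-parameter logistic equation.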

Row | Compound | Ratio of Bcl-2 G101V/WT [1] | IC50 [2] | IC50 [3] | IC50 [4] | IC50 [5]
1 | CCc1cc(CN2CCN(C3CC4(CCN(c5ccc(C(=O)NS(=O)(=O)c6ccc(NC[C@H]7CC[C@](C)(O)CC7)c([N+](=O)[O-])c6)c(Oc6cnc7[nH]ccc7c6)c5)CC4)C3)C(c3ccccc3C(C)C)C2)ccc1OC (some centres unmarked) [Example 116, 2-((1H-pyrrolo[2,3-b]pyridin-5-yl)oxy)-4-(2-(4-(3-ethyl-4-methoxybenzyl)-2-(2-isopropylphenyl)piperazin-1-yl)-7-azaspiro[3.5]nonan-7-yl)-N-((4-((((1r,4r)-4-hydroxy-4-methylcyclohexyl)methyl)amino)-3-nitrophenyl)sulfonyl)benzamide] | 4.7 | 2 nM | 0.58 nM | 4.76 nM | 0.42 nM
2 | COc1c(Cl)cccc1CN1CCN(C2CC3(CCN(c4ccc(C(=O)NS(=O)(=O)c5ccc(NC[C@H]6CC[C@](C)(O)CC6)c([N+](=O)[O-])c5)c(Oc5cnc6[nH]ccc6c5)c4)CC3)C2)C(c2ccccc2C(C)C)C1 (some centres unmarked) [Example 119, 2-((1H-pyrrolo[2,3-b]pyridin-5-yl)oxy)-4-(2-(4-(3-chloro-2-methoxybenzyl)-2-(2-isopropylphenyl)piperazin-1-yl)-7-azaspiro[3.5]nonan-7-yl)-N-((4-((((1r,4r)-4-hydroxy-4-methylcyclohexyl)methyl)amino)-3-nitrophenyl)sulfonyl)benzamide] | 8.5 | 3.1 nM | 1.44 nM | 14.4 nM | 0.37 nM
3 | COc1cccc(CN2CCN(C3CC4(CCN(c5ccc(C(=O)NS(=O)(=O)c6ccc(NC[C@H]7CC[C@](C)(O)CC7)c([N+](=O)[O-])c6)c(Oc6cnc7[nH]ccc7c6)c5)CC4)C3)C(c3ccccc3C(C)C)C2)c1Cl (some centres unmarked) [Example 120, 2-((1H-pyrrolo[2,3-b]pyridin-5-yl)oxy)-4-(2-(4-(2-chloro-3-methoxybenzyl)-2-(2-isopropylphenyl)piperazin-1-yl)-7-azaspiro[3.5]nonan-7-yl)-N-((4-((((1r,4r)-4-hydroxy-4-methylcyclohexyl)methyl)amino)-3-nitrophenyl)sulfonyl)benzamide] | 8 | 3.4 nM | 1.25 nM | 12.7 nM | 0.42 nM
4 | COc1cc(CN2CCN(C3CC4(CCN(c5ccc(C(=O)NS(=O)(=O)c6ccc(NC[C@H]7CC[C@](C)(O)CC7)c([N+](=O)[O-])c6)c(Oc6cnc7[nH]ccc7c6)c5)CC4)C3)[C@H](c3ccccc3C(C)C)C2)ccc1F [Example 121a, 2-((1H-pyrrolo[2,3-b]pyridin-5-yl)oxy)-4-(2-((R)-4-(4-fluoro-3-methoxybenzyl)-2-(2-isopropylphenyl)piperazin-1-yl)-7-azaspiro[3.5]nonan-7-yl)-N-((4-((((1r,4r)-4-hydroxy-4-methylcyclohexyl)methyl)amino)-3-nitrophenyl)sulfonyl)benzamide] | 3.4 | 0.4 nM | 0.153 nM | 0.603 nM | 0.12 nM
5 | COc1cc(CN2CCN(C3CC4(CCN(c5ccc(C(=O)NS(=O)(=O)c6ccc(NC[C@H]7CC[C@](C)(O)CC7)c([N+](=O)[O-])c6)c(Oc6cnc7[nH]ccc7c6)c5)CC4)C3)C(c3ccccc3C(C)C)C2)ccc1Cl (some centres unmarked) [Example 126, 2-((1H-pyrrolo[2,3-b]pyridin-5-yl)oxy)-4-(2-(4-(4-chloro-3-methoxybenzyl)-2-(2-isopropylphenyl)piperazin-1-yl)-7-azaspiro[3.5]nonan-7-yl)-N-((4-((((1r,4r)-4-hydroxy-4-methylcyclohexyl)methyl)amino)-3-nitrophenyl)sulfonyl)benzamide] | 4.5 | 1.9 nM | 0.18 nM | 3.6 nM | 0.42 nM
6 | COc1ccc(CN2CCN(C3CC4(CCN(c5ccc(C(=O)NS(=O)(=O)c6ccc(NC[C@H]7CC[C@](C)(O)CC7)c([N+](=O)[O-])c6)c(Oc6cnc7[nH]ccc7c6)c5)CC4)C3)C(c3ccccc3C(C)C)C2)cc1Cl (some centres unmarked) [Example 128, 2-((1H-pyrrolo[2,3-b]pyridin-5-yl)oxy)-4-(2-(4-(3-chloro-4-methoxybenzyl)-2-(2-isopropylphenyl)piperazin-1-yl)-7-azaspiro[3.5]nonan-7-yl)-N-((4-((((1r,4r)-4-hydroxy-4-methylcyclohexyl)methyl)amino)-3-nitrophenyl)sulfonyl)benzamide] | 4 | 2.6 nM | 0.36 nM | 3.94 nM | 0.63 nM
7 | CC(C)c1ccccc1C1CN(Cc2cccc3c2OCCC3)CCN1C1CC2(CCN(c3ccc(C(=O)NS(=O)(=O)c4ccc(NC[C@H]5CC[C@](C)(O)CC5)c([N+](=O)[O-])c4)c(Oc4cnc5[nH]ccc5c4)c3)CC2)C1 (some centres unmarked) [Example 130, 2-((1H-pyrrolo[2,3-b]pyridin-5-yl)oxy)-4-(2-(4-(chroman-8-ylmethyl)-2-(2-isopropylphenyl)piperazin-1-yl)-7-azaspiro[3.5]nonan-7-yl)-N-((4-((((1r,4r)-4-hydroxy-4-methylcyclohexyl)methyl)amino)-3-nitrophenyl)sulfonyl)benzamide] | 3.4 | 1.9 nM | 0.34 nM | 2.8 nM | 0.57 nM
8 | CC(C)c1ccccc1C1CN(Cc2cccc3c2CCCO3)CCN1C1CC2(CCN(c3ccc(C(=O)NS(=O)(=O)c4ccc(NC[C@H]5CC[C@](C)(O)CC5)c([N+](=O)[O-])c4)c(Oc4cnc5[nH]ccc5c4)c3)CC2)C1 (some centres unmarked) [Example 133, 2-((1H-pyrrolo[2,3-b]pyridin-5-yl)oxy)-4-(2-(4-(chroman-5-ylmethyl)-2-(2-isopropylphenyl)piperazin-1-yl)-7-azaspiro[3.5]nonan-7-yl)-N-((4-((((1r,4r)-4-hydroxy-4-methylcyclohexyl)methyl)amino)-3-nitrophenyl)sulfonyl)benzamide] | 3.4 | 1.9 nM | 0.34 nM | 2.8 nM | 0.57 nM
9 | COc1ccc(CN2CCN(C3CC4(CCN(c5ccc(C(=O)NS(=O)(=O)c6ccc(NC[C@H]7CC[C@](C)(O)CC7)c([N+](=O)[O-])c6)c(Oc6cnc7[nH]ccc7c6)c5)CC4)C3)C(c3ccccc3C(C)C)C2)cc1C1CC1 (some centres unmarked) [Example 136, 2-((1H-pyrrolo[2,3-b]pyridin-5-yl)oxy)-4-(2-(4-(3-cyclopropyl-4-methoxybenzyl)-2-(2-isopropylphenyl)piperazin-1-yl)-7-azaspiro[3.5]nonan-7-yl)-N-((4-((((1r,4r)-4-hydroxy-4-methylcyclohexyl)methyl)amino)-3-nitrophenyl)sulfonyl)benzamide] | 3.8 | 2.9 nM | 0.51 nM | 4.6 nM | 0.75 nM
10 | CC(C)c1ccccc1C1CN(Cc2cccc3ccoc23)CCN1C1CC2(CCN(c3ccc(C(=O)NS(=O)(=O)c4ccc(NC[C@H]5CC[C@](C)(O)CC5)c([N+](=O)[O-])c4)c(Oc4cnc5[nH]ccc5c4)c3)CC2)C1 (some centres unmarked) [Example 137, 2-((1H-pyrrolo[2,3-b]pyridin-5-yl)oxy)-4-(2-(4-(benzofuran-7-ylmethyl)-2-(2-isopropylphenyl)piperazin-1-yl)-7-azaspiro[3.5]nonan-7-yl)-N-((4-((((1r,4r)-4-hydroxy-4-methylcyclohexyl)methyl)amino)-3-nitrophenyl)sulfonyl)benzamide] | 5.1 | 3.2 nM | 0.89 nM | 9.6 nM | 0.62 nM
